Assay results published in publication PMC6171417, “Carbonic anhydrase inhibition with a series of novel benzenesulfonamide-triazole conjugates” (Journal of Enzyme Inhibition and Medicinal Chemistry, 2018).

Legend:
PC-3 = assay: cells; design: species or system NCI human tumour cell line panel; NCI one-dose anti-proliferative screen, human tumour cell line panel, growth inhibition percent (GI%); conditions: Homo sapiens, PC-3; growth inhibition (GI%), single dose
Experimental: (§1) Ten of the newly synthesised 1,2,3-triazolo benzenesulfonamide derivatives were selected by NCI (Bethesda, MD) for evaluating their anti-proliferative activity. The selected compounds were subjected to a primary in vitro one-dose ([…]) anti-proliferative assay against 57 human tumour cell lines following the previously reported method[30] and their obtained growth inhibition percent (GI%) are presented in Table 2. A subset of ten triazolo-benzenesulfonamides (3, 5, 6, 7, 9, 11, 16–18, and 20) were selected and subjected to an in vitro anti-proliferative screening against a panel of 57 cancer cell lines at NCI at an initial high dose ([…]). The human cell lines used were derived from nine cancer types: leukaemia, lung, colon, CNS, melanoma, ovarian, renal, prostate and breast cancers.

SF-539 = assay: cells; design: species or system NCI human tumour cell line panel; NCI one-dose anti-proliferative screen, human tumour cell line panel, growth inhibition percent (GI%); conditions: Homo sapiens, SF-539; growth inhibition (GI%), single dose
Experimental: as §1

OVCAR-8 = assay: cells; design: species or system NCI human tumour cell line panel; NCI one-dose anti-proliferative screen, human tumour cell line panel, growth inhibition percent (GI%); conditions: Homo sapiens, OVCAR-8; growth inhibition (GI%), single dose
Experimental: as §1

HCT-116 = assay: cells; design: species or system NCI human tumour cell line panel; NCI one-dose anti-proliferative screen, human tumour cell line panel, growth inhibition percent (GI%); conditions: Homo sapiens, HCT-116; growth inhibition (GI%), single dose
Experimental: as §1

A549/ATCC = assay: cells; design: species or system NCI human tumour cell line panel; NCI one-dose anti-proliferative screen, human tumour cell line panel, growth inhibition percent (GI%); conditions: Homo sapiens, A549; growth inhibition (GI%), single dose
Experimental: as §1

A498 = assay: cells; design: species or system NCI human tumour cell line panel; NCI one-dose anti-proliferative screen, human tumour cell line panel, growth inhibition percent (GI%); conditions: Homo sapiens, A498; growth inhibition (GI%), single dose
Experimental: as §1

OVCAR-4 = assay: cells; design: species or system NCI human tumour cell line panel; NCI one-dose anti-proliferative screen, human tumour cell line panel, growth inhibition percent (GI%); conditions: Homo sapiens, OVCAR-4; growth inhibition (GI%), single dose
Experimental: as §1

SN12C = assay: cells; design: species or system NCI human tumour cell line panel; NCI one-dose anti-proliferative screen, human tumour cell line panel, growth inhibition percent (GI%); conditions: Homo sapiens, SN12C; growth inhibition (GI%), single dose
Experimental: as §1

RPMI-8226 = assay: cells; design: species or system NCI human tumour cell line panel; NCI one-dose anti-proliferative screen, human tumour cell line panel, growth inhibition percent (GI%); conditions: Homo sapiens, RPMI-8226; growth inhibition (GI%), single dose
Experimental: as §1

SW-620 = assay: cells; design: species or system NCI human tumour cell line panel; NCI one-dose anti-proliferative screen, human tumour cell line panel, growth inhibition percent (GI%); conditions: Homo sapiens, SW-620; growth inhibition (GI%), single dose
Experimental: as §1

SR = assay: cells; design: species or system NCI human tumour cell line panel; NCI one-dose anti-proliferative screen, human tumour cell line panel, growth inhibition percent (GI%); conditions: Homo sapiens, SR; growth inhibition (GI%), single dose
Experimental: as §1

UO-31 = assay: cells; design: species or system NCI human tumour cell line panel; NCI one-dose anti-proliferative screen, human tumour cell line panel, growth inhibition percent (GI%); conditions: Homo sapiens, UO-31; growth inhibition (GI%), single dose
Experimental: as §1

UACC-62 = assay: cells; design: species or system NCI human tumour cell line panel; NCI one-dose anti-proliferative screen, human tumour cell line panel, growth inhibition percent (GI%); conditions: Homo sapiens, UACC-62; growth inhibition (GI%), single dose
Experimental: as §1

ACHN = assay: cells; design: species or system NCI human tumour cell line panel; NCI one-dose anti-proliferative screen, human tumour cell line panel, growth inhibition percent (GI%); conditions: Homo sapiens, ACHN; growth inhibition (GI%), single dose
Experimental: as §1

SF-268 = assay: cells; design: species or system NCI human tumour cell line panel; NCI one-dose anti-proliferative screen, human tumour cell line panel, growth inhibition percent (GI%); conditions: Homo sapiens, SF-268; growth inhibition (GI%), single dose
Experimental: as §1

HCT-15 = assay: cells; design: species or system NCI human tumour cell line panel; NCI one-dose anti-proliferative screen, human tumour cell line panel, growth inhibition percent (GI%); conditions: Homo sapiens, HCT-15; growth inhibition (GI%), single dose
Experimental: as §1

BT-549 = assay: cells; design: species or system NCI human tumour cell line panel; NCI one-dose anti-proliferative screen, human tumour cell line panel, growth inhibition percent (GI%); conditions: Homo sapiens, BT-549; growth inhibition (GI%), single dose
Experimental: as §1

MALME-3M = assay: cells; design: species or system NCI human tumour cell line panel; NCI one-dose anti-proliferative screen, human tumour cell line panel, growth inhibition percent (GI%); conditions: Homo sapiens, Malme-3M; growth inhibition (GI%), single dose
Experimental: as §1

NCI/ADR-RES = assay: cells; design: species or system NCI human tumour cell line panel; NCI one-dose anti-proliferative screen, human tumour cell line panel, growth inhibition percent (GI%); conditions: Homo sapiens, NCI/ADR-RES; growth inhibition (GI%), single dose
Experimental: as §1

hCA I = biological target: T1, hCA I (Homo sapiens, UniProt P00915); assay: stopped-flow CO2 hydrase assay; assay type: biochemical
T1 construct: gene CA1; recombinant, obtained in-house as reported earlier; cytosolic
Description: stopped-flow CO2 hydrase assay on hCA I

T1 sequence (P00915 2-261): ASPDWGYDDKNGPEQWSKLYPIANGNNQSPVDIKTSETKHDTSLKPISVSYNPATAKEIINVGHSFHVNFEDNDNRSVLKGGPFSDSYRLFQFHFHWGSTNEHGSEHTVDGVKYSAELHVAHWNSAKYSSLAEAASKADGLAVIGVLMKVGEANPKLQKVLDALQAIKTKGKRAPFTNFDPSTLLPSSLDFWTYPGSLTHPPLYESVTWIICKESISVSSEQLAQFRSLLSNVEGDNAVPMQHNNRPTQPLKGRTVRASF

N#Cc1nnn(-c2ccc(S(N)(=O)=O)cc2)c1N [compound 3, 3]
inhibition at 10 µM (PC-3): 8.3%
inhibition at 10 µM (SF-539): 1.9%
inhibition at 10 µM (OVCAR-8): 4.6%
inhibition at 10 µM (HCT-116): 7.1%
inhibition at 10 µM (A549/ATCC): 4.2%
inhibition at 10 µM (A498): 13.6%
inhibition at 10 µM (OVCAR-4): 4.1%
inhibition at 10 µM (SN12C): 1.1%
inhibition at 10 µM (RPMI-8226): 8.5%
inhibition at 10 µM (SW-620): 5.1%
inhibition at 10 µM (SR): 3.5%
inhibition at 10 µM (UO-31): 14.5%
inhibition at 10 µM (UACC-62): 5.5%
inhibition at 10 µM (ACHN): 1.3%
inhibition at 10 µM (SF-268): 2.8%

N#Cc1nnn(-c2ccc(S(N)(=O)=O)cc2)c1NCC(=O)c1ccccc1 [compound 7, 7]
inhibition at 10 µM (HCT-15): 1.7%
inhibition at 10 µM (PC-3): 15.9%
inhibition at 10 µM (OVCAR-8): 2.4%
inhibition at 10 µM (HCT-116): 5.1%
inhibition at 10 µM (A549/ATCC): 6.7%
inhibition at 10 µM (OVCAR-4): 10.2%
inhibition at 10 µM (BT-549): 2%
inhibition at 10 µM (SN12C): 2.9%
inhibition at 10 µM (RPMI-8226): 12.5%
inhibition at 10 µM (SW-620): 2.8%
inhibition at 10 µM (SR): 9.3%
inhibition at 10 µM (UO-31): 21.1%
inhibition at 10 µM (MALME-3M): 3.6%
inhibition at 10 µM (UACC-62): 4%
inhibition at 10 µM (ACHN): 0.6%
inhibition at 10 µM (SF-268): 6.5%

N#Cc1nnn(-c2ccc(S(N)(=O)=O)cc2)c1/N=C/c1ccc(Cl)cc1 [compound 9, 9]
inhibition at 10 µM (HCT-15): 4.3%
inhibition at 10 µM (PC-3): 9.3%
inhibition at 10 µM (OVCAR-8): 7.4%
inhibition at 10 µM (HCT-116): 1.2%
inhibition at 10 µM (A549/ATCC): 16.1%
inhibition at 10 µM (A498): 8.6%
inhibition at 10 µM (BT-549): 11.3%
inhibition at 10 µM (NCI/ADR-RES): 5.4%
inhibition at 10 µM (RPMI-8226): 12.3%
inhibition at 10 µM (SR): 15.8%
inhibition at 10 µM (UO-31): 0.3%
inhibition at 10 µM (UACC-62): 6%

N#Cc1nnn(-c2ccc(S(N)(=O)=O)cc2)c1NS(=O)(=O)c1ccccc1 [compound 11, N-(4-cyano-1-(4-sulfamoylphenyl)-1H-1,2,3-triazol-5-yl)benzenesulfonamide]
inhibition at 10 µM (PC-3): 9.7%
inhibition at 10 µM (SF-539): 3.2%
inhibition at 10 µM (OVCAR-8): 2.9%
inhibition at 10 µM (HCT-116): 2.1%
inhibition at 10 µM (A549/ATCC): 11.8%
inhibition at 10 µM (SN12C): 1.6%
inhibition at 10 µM (NCI/ADR-RES): 3.2%
inhibition at 10 µM (RPMI-8226): 7.1%
inhibition at 10 µM (SW-620): 2.3%
inhibition at 10 µM (SR): 9.2%
inhibition at 10 µM (UO-31): 13.4%
inhibition at 10 µM (MALME-3M): 1.2%
inhibition at 10 µM (UACC-62): 5.9%
Ki (hCA I): 5550 nM

N#Cc1c(-c2ccc(Cl)cc2)nc2c(nnn2-c2ccc(S(N)(=O)=O)cc2)c1N [compound 16, 4-(7-amino-5-(4-chlorophenyl)-6-cyano-3H-[1,2,3]triazolo[4,5-b]pyridin-3-yl)benzenesulfonamide]
inhibition at 10 µM (HCT-15): 1.6%
inhibition at 10 µM (PC-3): 22.2%
inhibition at 10 µM (OVCAR-8): 3.8%
inhibition at 10 µM (HCT-116): 4.6%
inhibition at 10 µM (A549/ATCC): 8.6%
inhibition at 10 µM (A498): 17.6%
inhibition at 10 µM (OVCAR-4): 21.6%
inhibition at 10 µM (SN12C): 8.9%
inhibition at 10 µM (NCI/ADR-RES): 4.2%
inhibition at 10 µM (RPMI-8226): 8.4%
inhibition at 10 µM (SR): 16.8%
inhibition at 10 µM (UO-31): 25%
inhibition at 10 µM (UACC-62): 15.5%
inhibition at 10 µM (SF-268): 5.4%
Ki (hCA I): 605 nM

CN(C)c1ccc(-c2nc3c(nnn3-c3ccc(S(N)(=O)=O)cc3)c(N)c2C#N)cc1 [compound 17, 4-(7-amino-6-cyano-5-(4-(dimethylamino)phenyl)-3H-[1,2,3]triazolo[4,5-b]pyridin-3-yl)benzenesulfonamide]
inhibition at 10 µM (HCT-15): 1.2%
inhibition at 10 µM (PC-3): 13.8%
inhibition at 10 µM (SF-539): 2.7%
inhibition at 10 µM (OVCAR-8): 11.4%
inhibition at 10 µM (HCT-116): 3.6%
inhibition at 10 µM (A549/ATCC): 16.3%
inhibition at 10 µM (A498): 1.8%
inhibition at 10 µM (OVCAR-4): 0.8%
inhibition at 10 µM (BT-549): 0.3%
inhibition at 10 µM (SN12C): 4.7%
inhibition at 10 µM (RPMI-8226): 12.5%
inhibition at 10 µM (SW-620): 2.7%
inhibition at 10 µM (SR): 3.2%
inhibition at 10 µM (UO-31): 29.9%
inhibition at 10 µM (MALME-3M): 0.4%
inhibition at 10 µM (UACC-62): 11.6%
inhibition at 10 µM (ACHN): 9.3%
inhibition at 10 µM (SF-268): 3.9%
Ki (hCA I): 683 nM

Nc1nc(=S)[nH]c2c1nnn2-c1ccc(S(N)(=O)=O)cc1 [compound 18, 4-(7-amino-5-thioxo-4,5-dihydro-3H-[1,2,3]triazolo[4,5-d]pyrimidin-3-yl)benzenesulfonamide]
inhibition at 10 µM (PC-3): 7.8%
inhibition at 10 µM (OVCAR-8): 3.7%
inhibition at 10 µM (A549/ATCC): 5.1%
inhibition at 10 µM (A498): 5.5%
inhibition at 10 µM (OVCAR-4): 7.9%
inhibition at 10 µM (SN12C): 1.2%
inhibition at 10 µM (RPMI-8226): 12.3%
inhibition at 10 µM (SW-620): 4.3%
inhibition at 10 µM (SR): 1.7%
inhibition at 10 µM (UO-31): 13.8%
inhibition at 10 µM (UACC-62): 5.6%
inhibition at 10 µM (SF-268): 1.5%
Ki (hCA I): 955 nM

CCn1c(=S)[nH]c2c(nnn2-c2ccc(S(N)(=O)=O)cc2)c1=N [compound 20, 4-(6-ethyl-7-imino-5-thioxo-4,5,6,7-tetrahydro-3H-[1,2,3]triazolo[4,5-d]pyrimidin-3-yl)benzenesulfonamide]
inhibition at 10 µM (PC-3): 9.7%
inhibition at 10 µM (OVCAR-8): 4.8%
inhibition at 10 µM (A549/ATCC): 12.2%
inhibition at 10 µM (A498): 6.2%
inhibition at 10 µM (SN12C): 0.9%
inhibition at 10 µM (NCI/ADR-RES): 2.2%
inhibition at 10 µM (RPMI-8226): 12.1%
inhibition at 10 µM (SR): 7.5%
inhibition at 10 µM (UO-31): 7.3%
inhibition at 10 µM (UACC-62): 4.3%
Ki (hCA I): 909 nM
